The record followed here is paper PMC9458059, “Design, Synthesis and Biological Evaluation of New Carbohydrate-Based Coumarin Derivatives as Selective Carbonic Anhydrase IX Inhibitors via “Click” Reaction” (Molecules, 2022).

SMILES strings stand for the structures. Like-named read-outs stand apart in the source and are kept apart here.

The target of one series is T1, hCA IX (Homo sapiens, UniProt Q16790).
T1 construct: purchased
Briefly: CA inhibition by the esterase assay, hCA IX. Type of series: biochemical. The method, then:
(§1) The esterase assay was used for testing the inhibitory activities of target compounds against carbonic anhydrases. […] Next, the stock solution of inhibitor was diluted to the specified concentration by using analysis buffer. […] In addition, the purchased CA was diluted with analysis buffer and added to 96-well plates. Next, different concentrations of inhibitors were also added to 96-well plates. To form the inhibitors and enzymes complex, E-I solutions were preincubated together for 4 h before the test at room temperature. Meanwhile, the nonenzymatic hydrolysis rates were tested by the blank control experiments. The absorbances were determined by using multifunctional enzyme marking instrument.

A further series concerns MCF-10A cell line. Briefly: Cytotoxicity against normal cell line MCF-10A (MTT assay). Type of series: cell-based. As to conditions: Homo sapiens. For orientation: Tetrazolium assays rely on reduction of a dye to a coloured formazan, in cell work by metabolically active cells.
In the next series the target is T2, hERG channel (Homo sapiens, UniProt Q12809).
T2 construct: expressed in transfected cells; host or cells: HEK 293
T2 sequence (Q12809 whole entry): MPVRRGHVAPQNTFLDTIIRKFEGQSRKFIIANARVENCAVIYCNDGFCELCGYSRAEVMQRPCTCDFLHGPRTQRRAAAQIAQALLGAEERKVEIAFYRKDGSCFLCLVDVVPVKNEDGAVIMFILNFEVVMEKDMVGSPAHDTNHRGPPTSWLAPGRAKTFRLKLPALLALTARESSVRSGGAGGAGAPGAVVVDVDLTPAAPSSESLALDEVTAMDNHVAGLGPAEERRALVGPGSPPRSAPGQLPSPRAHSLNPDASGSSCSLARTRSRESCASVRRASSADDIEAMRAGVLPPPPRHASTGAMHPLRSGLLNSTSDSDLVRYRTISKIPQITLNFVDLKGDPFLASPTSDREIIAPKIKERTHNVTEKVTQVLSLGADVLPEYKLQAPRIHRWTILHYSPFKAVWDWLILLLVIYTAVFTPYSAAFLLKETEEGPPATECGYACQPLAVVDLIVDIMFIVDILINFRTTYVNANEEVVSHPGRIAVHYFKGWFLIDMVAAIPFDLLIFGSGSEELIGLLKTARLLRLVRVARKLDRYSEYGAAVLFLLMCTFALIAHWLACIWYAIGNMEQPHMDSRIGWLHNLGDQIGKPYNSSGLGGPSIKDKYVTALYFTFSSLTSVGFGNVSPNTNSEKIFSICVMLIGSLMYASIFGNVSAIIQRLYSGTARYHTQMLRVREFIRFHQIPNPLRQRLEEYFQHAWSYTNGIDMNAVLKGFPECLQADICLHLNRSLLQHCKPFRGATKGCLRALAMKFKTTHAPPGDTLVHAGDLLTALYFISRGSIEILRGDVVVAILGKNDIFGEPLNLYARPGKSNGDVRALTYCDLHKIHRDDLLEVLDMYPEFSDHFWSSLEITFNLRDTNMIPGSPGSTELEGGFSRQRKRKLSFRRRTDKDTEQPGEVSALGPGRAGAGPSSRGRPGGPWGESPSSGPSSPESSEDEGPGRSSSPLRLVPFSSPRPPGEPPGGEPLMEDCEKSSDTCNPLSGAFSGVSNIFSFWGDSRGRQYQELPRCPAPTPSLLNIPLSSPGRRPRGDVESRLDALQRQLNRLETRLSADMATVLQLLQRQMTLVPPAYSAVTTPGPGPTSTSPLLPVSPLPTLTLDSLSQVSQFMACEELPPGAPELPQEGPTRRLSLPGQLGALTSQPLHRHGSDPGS
Briefly: Inhibition evaluation on hERG K+ channel (whole-cell recording, HEK 293). Format: cell-based. As to conditions: HEK 293 cells stably transfected with hERG.

Another series has as its system HT-29 cancer cells. Briefly: Extracellular pH measurement, HT-29. Type of series: cell-based, human. Particulars: HT-29, 0.1 and 0.5 mM, 48 h, normoxia and hypoxia. As for the experimental part:
(§2) One important feature of CA IX is regulating the pH of tumor cells. The expression of CA IX in solid tumors will make the extracellular pH become more acidic to promote tumor growth and metastasis. Therefore, the effect on extracellular pH of the representative compounds 10a and 10h was tested in hypoxia and normoxic conditions. […] Especially, the extracellular acidification of these two cancer cells could be slightly reversed by this compound under normoxic condition. In addition, the reversal of extracellular acidification is more significant under hypoxia condition. Furthermore, a dose-dependent effect was observed.
(§3) Figure 3 Extracellular pH measurement after 48 h of HT-29 and MDA-MB-231 cancer cells in normoxia and hypoxia upon treatment with compound 10a and 10h (0.1 and 0.5 mM).

The nature of series [1]: Metabolic stability in mouse liver microsomes.
The nature of a further series: Plasma stability assay. Type of series: in vitro ADME. Particulars: male, SD, pH 7.4, rat plasma, 37 °C. As for the experimental part:
In fact, most drugs reach their targets to show their pharmacological activity via the circulation system, therefore, the plasma stability of the target compound is a crucial consideration for the evaluation of its druggability. Therefore, the in vitro plasma stability assay of the representative compound was also performed in this study.
Rat plasma was collected from adult male SD rats. The in vitro stability of 10a was determined in rat plasma and in PBS at 37 °C, at the meantime, samples were taken at time points 0, 10, 30, 60, and 120, and tested by HPLC. The rest of the time was incubated in a constant temperature shaker to compare different time points. Compare the peak areas of 10a in PBS or in rat plasma (pH = 7.4, 37 °C) before and after constant temperature incubation at different time points. The compounds in rat plasma were extracted with methanol, centrifuged, and repeated three times, and then detected with a preparative liquid phase at 254 wavelength.

The next series relates to MDA-MB-231 cancer cells. Description: Extracellular pH measurement, MDA-MB-231. Type of series: cell-based, human. As to conditions: MDA-MB-231, 0.1 and 0.5 mM, 48 h, normoxia and hypoxia. As for the experimental part:
as §2, §3

Another series concerns the target T3, hCA I (Homo sapiens, UniProt P00915).
T3 construct: purchased
Description: CA inhibition by the esterase assay, hCA I. Particulars: human recombinant enzyme, 4-nitrophenylacetate as substrate. Format: biochemical. As for the experimental part: as §1

A short description of series [2]: Acute toxicity assay in mice. As to conditions: mouse, in vivo, oral, mice, expected from preliminary data. The method, then: (§4) Finally, acute toxicity of representative compounds was conducted in mice to preliminarily evaluate the risk of target compounds to mammals. […].
(§5) […]. After the compound was administered, the latency of death was observed and recorded over a span of 14 days. The experimental protocols were evaluated and approved by the ethics committee of the Shenyang Pharmaceutical University.

The subject of another series is mice. Briefly: Acute toxicity assay in mice. As to conditions: mouse, in vivo, 14 days. As for the experimental part:
as §4, §5

The next series deals with hCA II (Homo sapiens, UniProt P00918). Briefly: CA inhibition by the esterase assay, hCA II. As to conditions: human recombinant enzyme, 4-nitrophenylacetate as substrate. Type of series: biochemical. The method, then: as §1
The next series concerns MDA-MB-231 cells. Briefly: Cell viability MTT assay, MDA-MB-231. Type of series: cell-based. Particulars: Homo sapiens. The method, then:
(§6) In the present study, the potential cytotoxicity of compounds 10a–10p was evaluated in vitro by MTT assay. […] So, half of each cell line were subjected to hypoxic conditions (0.5% O2, 5% CO2 and 94.5% N2) for inducing the expression of CA IX and the other half were incubated under normal conditions (normoxia). Subsequently, all synthesized derivatives were screened at a concentration of 100 μM to test their cytotoxicity in mentioned above cells.
(§7) The two human cancer cell lines were cultivated for 24 h at 37 °C in a 96-well plate. Subsequently, different concentrations of inhibitors were added to 96-well plate and then was incubated for 96 hours. After the MTT solution was added to per well, cancer cells were further incubated for 4 h at 37 °C. Finally, formazan crystals were dissolved by using DMSO. The cancer cells were from American Type Culture Collection.

For the next series, the system named is HT-29 cells. Briefly: Cell viability MTT assay, HT-29. Type of series: cell-based. As to conditions: Homo sapiens. As for the experimental part:
as §6, §7

A further series can be described thus: in vitro. Particulars: mouse, microsomes.

The IC50 is the midpoint of a concentration-inhibition curve. A word on the CLint scaled: it is a measure of how fast metabolising enzymes remove a compound, apart from limits set by blood flow. As usually defined, the LD50 is the dose expected to kill half of the subjects tested. Lower therefore signals greater toxicity. The term viability denotes a read-out of living cells in per cent, often relative to untreated cells.

T3 sequence (P00915 whole entry): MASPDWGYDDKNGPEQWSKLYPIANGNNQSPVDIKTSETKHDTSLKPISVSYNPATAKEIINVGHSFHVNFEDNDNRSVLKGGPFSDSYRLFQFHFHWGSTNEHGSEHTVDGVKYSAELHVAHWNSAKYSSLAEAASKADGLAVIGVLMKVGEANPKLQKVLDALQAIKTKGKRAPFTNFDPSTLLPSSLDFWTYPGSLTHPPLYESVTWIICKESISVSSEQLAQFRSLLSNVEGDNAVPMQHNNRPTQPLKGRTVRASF
Description for hERG channel: HEK 293 cells were stably transfected with human Ether-a-gogo related gene (hERG) channel. The voltage-gated hERG potassium channel current was recorded at room temperature from randomly selected transfected cells using whole-cell recording technique with an EPC10 USB (HEKA) or Multiclamp 700 B amplifier (Molecular Devices) while electrical data was digitalized by Digidata1440 A with acquisition rate of 10 kHz and signals filtered at 2.5 KHz using Patchmaster or pClamp 10, respectively. Dofetilide was included as a positive control to ensure the accuracy and sensitivity of the test system. All experiments were performed in 3 times.

Take `O=c1ccc2ccc(OCc3cn([C@@H]4O[C@H](CO)[C@@H](O)[C@H](O)[C@H]4O)nn3)cc2o1` [Compound 10a, 7-[(1-β-. D-glucopyranosyl-1H-1,2,3-triazol-4-yl)methoxy]-2H-chromen-2-one]: the half-maximal inhibitory concentration (IC50) at hCA IX (human recombinant enzyme, esterase assay, 4-nitrophenylacetate as substrate) was 0.011 µM; with MCF-10A cell line, greater than 100 µM; on hERG channel, greater than 50 µM; on hCA I, 33.2 µM; at hCA II, 21.5 µM. The “Selectivity Ratio hCA I/hCA IX” value at hCA IX (ratio of IC50 values) amounted to 3018. Further, at hCA IX (ratio of IC50 values), the “Selectivity Ratio hCA II/hCA IX” value turned out to be 1955. Further, the “Effect on extracellular acidification (extracellular pH)” value in the series on HT-29 cancer cells and in the series with MDA-MB-231 cancer cells was “important impact on the extracellular acidification” throughout. Moreover, the CLint scaled at 1 μM in series [1] (mouse, liver microsomes) came to 0.286 L/h/kg. In addition, the half-life at 1 μM in series [1] (mouse, liver microsomes) worked out at 19.2 h. In addition, the fraction remaining at 0 h in “Plasma stability assay” (time point 0 min) is 100%. The amount remaining at 10 min in the series “Plasma stability assay” (time point 10 min) came to 115%. In the series “Plasma stability assay” (time point 30 min), the fraction remaining at 0.5 h is 93%. Moreover, the fraction remaining at 1 h in “Plasma stability assay” (time point 60 min) came to 86%. Moreover, the share remaining at 2 h in the series “Plasma stability assay” (time point 120 min) is 102%. In addition, the half-life in the series “Plasma stability assay” (read-out: T1/2 plasma stability) is greater than 20.5 h. In series [2], this molecule had a median lethal dose (LD50) at 14 days greater than 1500 mg/kg. In addition, the “Survival Quantity/Total Quantity” value in the series with mice (500 mg/kg), in the series on mice (1000 mg/kg) and in the series on mice (1500 mg/kg) was 5/5 in each case. The viability at 100 µM with MDA-MB-231 cells (hypoxia (0.5% O2, 5% CO2 and 94.5% N2), read-out: Cell Viability (%) MDA-MB-231 Hypoxia) was 32.9%; in the series on MDA-MB-231 cells (normoxia, read-out: Cell Viability (%) MDA-MB-231 Normoxia), 51.3%; in the series with HT-29 cells (hypoxia (0.5% O2, 5% CO2 and 94.5% N2), read-out: Cell Viability (%) HT-29 Hypoxia) it was 32.5%; with HT-29 cells (normoxia, read-out: Cell Viability (%) HT-29 Normoxia), 40.2%.
Take `O=C(O)Cc1ccccc1Nc1c(Cl)cccc1Cl` [Diclofenac, reference compound]: in [1] (mouse liver microsomes, 1 μΜ test compound), the CL was found to be 8.244 L/h/kg. Also, in “in vitro”, the half-life at 1 μM is 0.667 h.
